Measurements reported in PubChem BioAssay AID248 (DTP/NCI, 2004).
Values joined by “and” are separate entries in the source; they are usually repeats but may differ in a detail not shown here. Identical values can stand only once. Toxic doses and inconclusive results are not listed. No stated cut-off is given here; in the data, active means T/C of 150% or more; inactive means T/C below 125%.

Tested on: L1210 leukemia ip in BDF1 mice, survival T/C
Experiment: NCI In Vivo Anticancer Drug Screen. Data for tumor model L1210 Leukemia (intraperitoneal) in B6D2F1 (BDF1) mice
Details: endpoint: mean survival time, higher = longer survival
Procedure, shortened: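 Read-out is survival time, reported as the treated-group measurement over the vehicle-control measurement.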

[1] = dose: 25.0 mg/kg/injection, schedule: Q04DX003 (ip), vehicle: Klucel (hydroxypropylcellulose) (HPC)
[2] = dose: 50.0 mg/kg/injection, schedule: Q01DX009 (ip), vehicle: saline
[3] = dose: 100.0 mg/kg/injection, schedule: Q01DX009 (ip), vehicle: saline with Tween-80
[4] = dose: 100.0 mg/kg/injection, schedule: Q01DX009 (ip), vehicle: saline
[5] = dose: 200.0 mg/kg/injection, schedule: Q01DX009 (ip), vehicle: saline with Tween-80
[6] = dose: 200.0 mg/kg/injection, schedule: Q01DX009 (ip), vehicle: saline
[7] = dose: 100.0 mg/kg/injection, schedule: Q04DX003 (ip), vehicle: saline
[8] = dose: 100.0 mg/kg/injection, schedule: Q01DX001 (ip), vehicle: Klucel (hydroxypropylcellulose) (HPC)
[9] = dose: 200.0 mg/kg/injection, schedule: Q01DX001 (ip), vehicle: Klucel (hydroxypropylcellulose) (HPC)
[10] = dose: 400.0 mg/kg/injection, schedule: Q01DX001 (ip), vehicle: Klucel (hydroxypropylcellulose) (HPC)
[11] = dose: 100.0 mg/kg/injection, schedule: Q01DX009 (ip), vehicle: Klucel (hydroxypropylcellulose) (HPC)
[12] = dose: 100.0 mg/kg/injection, schedule: Q04DX003 (ip), vehicle: Klucel (hydroxypropylcellulose) (HPC)
[13] = dose: 200.0 mg/kg/injection, schedule: Q01DX009 (ip), vehicle: Klucel (hydroxypropylcellulose) (HPC)
[14] = dose: 200.0 mg/kg/injection, schedule: Q04DX003 (ip), vehicle: Klucel (hydroxypropylcellulose) (HPC)
[15] = dose: 400.0 mg/kg/injection, schedule: Q01DX009 (ip), vehicle: Klucel (hydroxypropylcellulose) (HPC)
[16] = dose: 400.0 mg/kg/injection, schedule: Q04DX003 (ip), vehicle: Klucel (hydroxypropylcellulose) (HPC)
[17] = dose: 100.0 mg/kg/injection, schedule: Q01DX001 (ip), vehicle: saline
[18] = dose: 200.0 mg/kg/injection, schedule: Q01DX001 (ip), vehicle: saline
[19] = dose: 400.0 mg/kg/injection, schedule: Q01DX001 (ip), vehicle: saline

Measured: T/C

CS(=O)(=O)c1ccc(N)cc1
inactive: dose: 6.25 mg/kg/injection, schedule: Q04DX003 (ip), vehicle: Klucel (hydroxypropylcellulose) (HPC) 99 % of control | dose: 12.5 mg/kg/injection, schedule: Q04DX003 (ip), vehicle: Klucel (hydroxypropylcellulose) (HPC) 95 % of control | [1] 95 % of control | dose: 50.0 mg/kg/injection, schedule: Q01DX009 (ip), vehicle: saline with Tween-80 100 % of control | [2] 93 % of control | [3] 92 % of control | [4] 87 % of control | [5] 92 % of control | [6] 93 % of control

COc1cc2ccc(C(C)N)cc2cc1OC (stereo unspecified)
inactive: [2] 100 % of control | [4] 105 % of control | [7] 110 % of control | [6] 103 % of control | dose: 200.0 mg/kg/injection, schedule: Q04DX003 (ip), vehicle: saline 117 % of control

CC(=O)Nc1ccc(/C=N/NC(=O)C(O)(c2ccccc2)c2ccccc2)cc1
inactive: dose: 100.0 mg/kg/injection, schedule: Q01DX001 (ip), vehicle: carboxymethylcellulose (CMC) 97 % of control | dose: 200.0 mg/kg/injection, schedule: Q01DX001 (ip), vehicle: carboxymethylcellulose (CMC) 103 % of control | dose: 400.0 mg/kg/injection, schedule: Q01DX001 (ip), vehicle: carboxymethylcellulose (CMC) 97 % of control

O=C(Cc1ccccc1)Nc1cccnc1
inactive: dose: 75.0 mg/kg/injection, schedule: Q04DX003 (ip), vehicle: Klucel (hydroxypropylcellulose) (HPC) 102 % of control | [8] 97 % of control | dose: 150.0 mg/kg/injection, schedule: Q04DX003 (ip), vehicle: Klucel (hydroxypropylcellulose) (HPC) 114 % of control | [9] 103 % of control | dose: 300.0 mg/kg/injection, schedule: Q04DX003 (ip), vehicle: Klucel (hydroxypropylcellulose) (HPC) 104 % of control | [10] 92 % of control

CC1C(=O)CC2C3(C)CCC2(C(C)C(=O)O)C(=O)C13 (stereo unspecified)
inactive: [8] 100 % of control | [11] 104 % of control | [12] 109 % of control | [9] 107 % of control | [13] 100 % of control | [14] 106 % of control | [10] 107 % of control | [15] 98 % of control | [16] 104 % of control

N#C/C(=C\c1ccncc1)c1ccccc1Cl
inactive: dose: 100.0 mg/kg/injection, schedule: Q01DX001 (ip), vehicle: other 91 % of control | dose: 200.0 mg/kg/injection, schedule: Q01DX001 (ip), vehicle: other 89 % of control | dose: 400.0 mg/kg/injection, schedule: Q01DX001 (ip), vehicle: other 96 % of control

CC1CN(C2CC3OCC3O2)C(=O)NC1=O (stereo unspecified)
inactive: [17] 103 % of control | [18] 98 % of control | [19] 98 % of control

Cc1ccc(S(=O)(=O)N(c2ccc(I)cc2F)S(=O)(=O)c2ccc(C)cc2)cc1
inactive: [12] 98 % of control | [14] 97 % of control | [16] 108 % of control

C(=P(c1ccccc1)(c1ccccc1)c1ccccc1)[P+](c1ccccc1)(c1ccccc1)c1ccccc1.[Cl][Fe]([Cl])([Cl])[Br]
inactive: dose: 0.39 mg/kg/injection, schedule: Q01DX009 (ip), vehicle: Klucel (hydroxypropylcellulose) (HPC) 119 % of control | dose: 0.78 mg/kg/injection, schedule: Q01DX009 (ip), vehicle: Klucel (hydroxypropylcellulose) (HPC) 112 % of control | dose: 1.56 mg/kg/injection, schedule: Q01DX009 (ip), vehicle: Klucel (hydroxypropylcellulose) (HPC) 97 % of control and 102 % of control

NC(=O)NC(CCl)NC(N)=O
inactive: dose: 25.0 mg/kg/injection, schedule: Q01DX009 (ip), vehicle: acetone 95 % of control | dose: 25.0 mg/kg/injection, schedule: Q04DX003 (ip), vehicle: saline 96 % of control | dose: 50.0 mg/kg/injection, schedule: Q01DX009 (ip), vehicle: acetone 94 % of control | dose: 50.0 mg/kg/injection, schedule: Q04DX003 (ip), vehicle: saline 94 % of control | dose: 100.0 mg/kg/injection, schedule: Q01DX001 (ip), vehicle: acetone 94 % of control | [7] 89 % of control

Cc1c2cnccc2c(C)c2c1c1ccccc1n2CCNCCO
inactive: dose: 6.25 mg/kg/injection, schedule: Q01DX009 (ip), vehicle: saline with Tween-80 97 % of control | dose: 12.5 mg/kg/injection, schedule: Q01DX009 (ip), vehicle: saline with Tween-80 122 % of control | dose: 25.0 mg/kg/injection, schedule: Q01DX009 (ip), vehicle: saline with Tween-80 113 % of control | dose: 100.0 mg/kg/injection, schedule: Q04DX003 (ip), vehicle: saline sonified 111 % of control | dose: 200.0 mg/kg/injection, schedule: Q04DX003 (ip), vehicle: saline sonified 103 % of control

COc1cc([N+](=O)[O-])ccc1C
inactive: dose: 100.0 mg/kg/injection, schedule: Q01DX009 (ip), vehicle: other 111 % of control | dose: 100.0 mg/kg/injection, schedule: Q04DX003 (ip), vehicle: other 97 % of control | dose: 200.0 mg/kg/injection, schedule: Q01DX009 (ip), vehicle: other 98 % of control | dose: 200.0 mg/kg/injection, schedule: Q04DX003 (ip), vehicle: other 90 % of control | dose: 400.0 mg/kg/injection, schedule: Q01DX009 (ip), vehicle: other 104 % of control | dose: 400.0 mg/kg/injection, schedule: Q04DX003 (ip), vehicle: other 88 % of control

O=[N+]([O-])c1ccc(/C=C\c2ccccc2)cc1
inactive: [11] 95 % of control | [12] 98 % of control | [13] 97 % of control | [14] 98 % of control | [15] 96 % of control | [16] 96 % of control

O=[N+]([O-])c1cc([N+](=O)[O-])c(Nn2c3ccccc3c3ccccc32)c([N+](=O)[O-])c1
inactive: dose: 6.25 mg/kg/injection, schedule: Q01DX009 (ip), vehicle: Klucel (hydroxypropylcellulose) (HPC) 103 % of control | dose: 12.5 mg/kg/injection, schedule: Q01DX009 (ip), vehicle: Klucel (hydroxypropylcellulose) (HPC) 104 % of control and 87 % of control | dose: 25.0 mg/kg/injection, schedule: Q01DX009 (ip), vehicle: Klucel (hydroxypropylcellulose) (HPC) 100 % of control and 102 % of control | [1] 107 % of control | dose: 50.0 mg/kg/injection, schedule: Q01DX009 (ip), vehicle: Klucel (hydroxypropylcellulose) (HPC) 96 % of control | dose: 50.0 mg/kg/injection, schedule: Q04DX003 (ip), vehicle: Klucel (hydroxypropylcellulose) (HPC) 95 % of control | [11] 94 % of control | [12] 92 % of control and 96 % of control | [14] 94 % of control and 87 % of control | [16] 102 % of control

COc1cc2c(cc1OC)/C(=C\C#N)NCC2
inactive: [17] 98 % of control | [18] 98 % of control | [19] 100 % of control

COc1ccc(OC(=O)Nc2ccc(SC)cc2)cc1
inactive: [3] 104 % of control | [12] 96 % of control | [5] 90 % of control | [14] 96 % of control | dose: 400.0 mg/kg/injection, schedule: Q01DX009 (ip), vehicle: saline with Tween-80 98 % of control | [16] 102 % of control
